Experimental data from BindingDB's records for doi:10.3109/14756360902932784 (Ewha Womans University, 2010).
Changes are numbered by the printed parent chain.

Tests used:
[1] = biological target: 5-hydroxytryptamine receptor 2A (Homo sapiens, UniProt P28223); test: [3H]Ketanserin Binding Assay; details: pH 7.4
Experimental: For serotonin 5-HT2A binding, an aliquot of frozen membrane from a CHO-K1 cell line expressing the human recombinant 5-HT2A receptor (PerkinElmer) and [3H]ketanserin (1 nM; PerkinElmer) were used in the presence of mianserin (20 μM) as nonspecific. The reaction mixture was incubated for 60 min at 27°C using 50 mM Tris-HCl (pH 7.4) buffer containin 4 mM CaCl2 and 0.1% ascorbic acid, and harvested through a Filtermat A glass fiber filter presoaked in 0.5% PEI.

[2] = biological target: T1, 5-hydroxytryptamine receptor 2C (Homo sapiens, UniProt P28335); test: [3H]Mesulergine Binding Assay; details: pH 7.4
T1 sequence (P28335 whole entry): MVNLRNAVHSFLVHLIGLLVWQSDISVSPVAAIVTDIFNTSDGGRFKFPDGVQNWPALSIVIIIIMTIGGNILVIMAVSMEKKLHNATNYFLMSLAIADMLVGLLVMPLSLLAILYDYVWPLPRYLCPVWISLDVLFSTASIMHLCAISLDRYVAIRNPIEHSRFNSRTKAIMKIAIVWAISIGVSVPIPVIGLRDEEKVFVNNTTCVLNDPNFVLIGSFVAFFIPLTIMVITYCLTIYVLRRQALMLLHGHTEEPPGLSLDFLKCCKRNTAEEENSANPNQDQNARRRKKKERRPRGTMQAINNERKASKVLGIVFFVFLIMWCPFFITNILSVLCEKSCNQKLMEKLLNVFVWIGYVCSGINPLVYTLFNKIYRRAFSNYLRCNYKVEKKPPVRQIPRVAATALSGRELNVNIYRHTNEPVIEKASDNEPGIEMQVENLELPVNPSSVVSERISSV
Experimental: (§1) Frozen membranes from a stable CHO-K1 cell line expressing the human recombinant 5-HT2C receptor (PerkinElmer) were used. For the binding assay, [3H]mesulergine (1 nM; Amersham Biosciences, Buckinghamshire, UK), receptor membrane, and test compounds were added into 50 mM Tris-HCl (pH 7.4) buffer containing 0.1% ascorbic acid and 4 mM CaCl2. Nonspecific binding was determined using 100 μM mianserin. The incubations were performed for 60 min at 27°C, and these were terminated by rapid filtration through a Filtermat A glass fiber filter presoaked in 0.5% PEI.

[3] = biological target: 5-hydroxytryptamine receptor 6 (Homo sapiens, UniProt P50406); test: [3H] LSD Binding Assay; details: pH 7.4; 27 °C
Experimental: (§2) For receptor binding assays, human 5-HT6 and 5-HT7 serotonin receptors expressed in CHO-K1 cells (PerkinElmer) were used. For 5-HT6 receptor binding, frozen membrane, 1 nM [3H]LSD (lysergic acid diethylamide; PerkinElmer), and appropriate concentrations of test compounds were added to 0.25 mL of 50 mM Tris-HCl (pH 7.4) buffer containing 0.1% ascorbic acid and 4 mM CaCl2. Nonspecific binding was determined using 10 μM methiothepin. The incubations were performed for 60 min at 27 °C, and these were terminated by rapid filtration through a Filtermat A glassfiber filter presoaked in 0.5% PEI. For the 5-HT7 receptor binding assay, cell membrane, 3 nM [3H]LSD, and appropriate concentrations of test compounds were added to 0.25 mL of 50 mM Tris-HCl (pH 7.4) buffer containing 10 mM MgSO4 and 0.5 mM EDTA. The mixture was incubated for 120 min at 27 °C, and the reaction was terminated by rapid filtration through a Filtermat A glass fiber filter presoaked in 0.3% PEI. Nonspecific binding was determined using 10 μM methiothepin.

[4] = biological target: 5-hydroxytryptamine receptor 7 (Homo sapiens, UniProt P34969); test: [3H] LSD Binding Assay; details: pH 7.4; 27 °C
Experimental: as §2

[5] = biological target: T2, 5-hydroxytryptamine receptor 1A (Homo sapiens, UniProt P08908); test: [3H]8-OH-DPAT Binding Assay; details: pH 7.4; 27 °C
T2 sequence (P08908 whole entry): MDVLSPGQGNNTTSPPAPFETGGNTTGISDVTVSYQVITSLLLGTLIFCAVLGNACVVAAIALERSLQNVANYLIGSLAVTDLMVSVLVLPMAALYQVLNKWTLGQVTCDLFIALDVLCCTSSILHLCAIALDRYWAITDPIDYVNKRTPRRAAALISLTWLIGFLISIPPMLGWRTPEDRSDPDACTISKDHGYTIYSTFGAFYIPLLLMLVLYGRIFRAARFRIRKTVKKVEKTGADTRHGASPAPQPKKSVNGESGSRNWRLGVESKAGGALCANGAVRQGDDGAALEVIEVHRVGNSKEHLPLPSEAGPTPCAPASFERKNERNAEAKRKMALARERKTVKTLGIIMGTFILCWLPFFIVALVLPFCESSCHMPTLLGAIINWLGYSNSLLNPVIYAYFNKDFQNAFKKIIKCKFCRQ
Experimental: For the binding assay, aliquots of receptor membranes, 0.25 nM [3H]8-OH-DPAT (8-hydroxy-2-(di-N-propylamino)tetralin, 154.3 Ci/mM; New England Nuclear, Boston, MA) and appropriate concentrations of test compounds were added to 0.25 mL of 50 mM Tris-HCl (pH 7.4) buffer containing 10 mM MgSO4, 0.5 mM ethylenediaminetetraacetic acid (EDTA), and 0.1% ascorbic acid. Incubations were carried out for 60 min at 27 °C, and these were terminated by rapid filtration using a MicroBeta FilterMate-96 harvester (PerkinElmer) through a Filtermat A glass fiber filter presoaked in 0.3% polyethylenimine (PEI). The filter was washed with ice-cold 50 mM Tris-HCl buffer solution (pH 7.4), and was then covered with MeltiLex, sealed in a sample bag, and dried in an oven.

[6] = biological target: T3, 5-hydroxytryptamine receptor 2C (Homo sapiens, UniProt P28335); test: [3H]Mesulergine Binding Assay; details: pH 7.4; remark: listed apart in the source
T3 sequence (P28335 whole entry): T1 sequence (P28335 whole entry) with S23C
Experimental: as §1

5-hydroxytryptamine receptor 6, sequence (P50406 whole entry): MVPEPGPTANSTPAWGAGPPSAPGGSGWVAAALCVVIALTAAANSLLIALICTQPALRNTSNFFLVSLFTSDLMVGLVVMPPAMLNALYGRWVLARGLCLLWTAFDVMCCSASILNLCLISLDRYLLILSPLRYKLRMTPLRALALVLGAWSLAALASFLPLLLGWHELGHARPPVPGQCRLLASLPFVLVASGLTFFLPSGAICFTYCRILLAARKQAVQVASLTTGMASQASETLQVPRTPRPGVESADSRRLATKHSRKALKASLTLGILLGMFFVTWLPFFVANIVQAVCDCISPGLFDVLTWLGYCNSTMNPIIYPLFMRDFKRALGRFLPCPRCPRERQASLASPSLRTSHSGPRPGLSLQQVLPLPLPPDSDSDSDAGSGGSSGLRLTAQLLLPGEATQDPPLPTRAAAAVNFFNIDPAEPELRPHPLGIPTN
5-hydroxytryptamine receptor 7, sequence (P34969 whole entry): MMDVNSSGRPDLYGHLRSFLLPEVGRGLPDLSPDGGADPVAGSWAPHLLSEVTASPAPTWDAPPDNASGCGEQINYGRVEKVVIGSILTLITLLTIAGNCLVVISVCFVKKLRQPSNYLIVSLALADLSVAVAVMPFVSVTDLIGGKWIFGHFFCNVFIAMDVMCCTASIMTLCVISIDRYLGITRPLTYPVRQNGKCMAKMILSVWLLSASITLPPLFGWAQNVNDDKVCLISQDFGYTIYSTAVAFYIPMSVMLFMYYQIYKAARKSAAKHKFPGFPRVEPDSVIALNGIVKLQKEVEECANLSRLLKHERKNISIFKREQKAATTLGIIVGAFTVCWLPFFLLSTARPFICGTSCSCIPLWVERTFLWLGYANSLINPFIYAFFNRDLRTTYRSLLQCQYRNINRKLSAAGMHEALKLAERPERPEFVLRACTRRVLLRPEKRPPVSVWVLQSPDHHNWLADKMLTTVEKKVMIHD
5-hydroxytryptamine receptor 2A, sequence (P28223 whole entry): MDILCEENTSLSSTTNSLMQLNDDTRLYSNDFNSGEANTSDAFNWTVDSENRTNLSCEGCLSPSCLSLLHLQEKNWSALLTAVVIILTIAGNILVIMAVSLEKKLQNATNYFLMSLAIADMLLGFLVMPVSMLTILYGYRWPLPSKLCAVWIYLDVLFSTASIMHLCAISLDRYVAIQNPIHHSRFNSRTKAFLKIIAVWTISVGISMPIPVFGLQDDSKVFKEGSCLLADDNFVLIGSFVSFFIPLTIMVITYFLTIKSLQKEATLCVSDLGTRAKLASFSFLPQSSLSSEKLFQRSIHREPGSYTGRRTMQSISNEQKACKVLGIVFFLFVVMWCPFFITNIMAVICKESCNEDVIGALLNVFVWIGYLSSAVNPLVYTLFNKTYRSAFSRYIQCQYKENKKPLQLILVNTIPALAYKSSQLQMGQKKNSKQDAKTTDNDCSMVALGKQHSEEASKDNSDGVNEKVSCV

Row | IC50 [1] | IC50 [2] | IC50 [3] | IC50 [4] | IC50 [5] | IC50 [6] | SMILES
1 | 6.8 µM | 4.5 µM | 5.6 µM | 6.7 µM | 2.1 µM |  | CCCCCCCCCCNC(=O)/C=C/c1cc(OC)c(OC)c(OC)c1 [(E)-N-Decyl-3-(3,4,5-trimethoxyphenyl) acrylamide (1f)]
2 | > 10 µM | 2.5 µM | > 10 µM | > 10 µM | 7.6 µM |  | COc1cc(/C=C/C(=O)O)cc(OC)c1OC [3,4,5-Trimethoxycinnamic acid (TMCA)]
3 | > 10 µM |  | > 10 µM | > 10 µM | 5.6 µM | > 10 µM | CNC(=O)/C=C/c1cc(OC)c(OC)c(OC)c1 [(E)-N-Methyl-3-(3,4,5-trimethoxyphenyl) acrylamide (1a)]
4 | > 10 µM |  | > 10 µM | > 10 µM | 5.9 µM | > 10 µM | C=CCNC(=O)/C=C/c1cc(OC)c(OC)c(OC)c1 [(E)-N-Allyl-3-(3,4,5-trimethoxyphenyl) acrylamide (1b)]
5 | > 10 µM | 8.8 µM | > 10 µM | > 10 µM | 1.2 µM |  | CCCCCCCCNC(=O)/C=C/c1cc(OC)c(OC)c(OC)c1 [(E)-N-Octyl-3-(3,4,5-trimethoxyphenyl) acrylamide (1e)]
6 | > 10 µM |  | > 10 µM | > 10 µM | 4.9 µM | > 10 µM | CCCCNC(=O)/C=C/c1cc(OC)c(OC)c(OC)c1 [(E)-N-Butyl-3-(3,4,5-trimethoxyphenyl) acrylamide (1c)]
7 | > 10 µM |  | > 10 µM | > 10 µM | 3.8 µM | > 10 µM | CCCCCCNC(=O)/C=C/c1cc(OC)c(OC)c(OC)c1 [(E)-N-Hexyl-3-(3,4,5-trimethoxyphenyl) acrylamide (1d)]
